This is an account of results in US20090075978A1, “SUBSTITUTED PROPIOLIC ACID AMIDES AND THEIR USE FOR PRODUCING DRUGS” (Grunenthal GmbH, priority 2005, published 2009).

In general, IC50 refers to the concentration needed to halve the response being measured. Lower therefore signals higher potency.

Structures are written as SMILES.

The experiment concerns the target T1, mGluR5 receptor (pig) (Sus scrofa, UniProt I3LUI7).
T1 construct: 450 μg of protein from brain homogenate is incubated; from tissue; host or cells: pig brain hemispheres without medulla, cerebellum and pons
Put plainly: [3H]-MPEP binding in the mGluR5 receptor binding assay (pig brain homogenate). The conditions noted are these: 5 nM [3H]-MPEP; for mGluR5 receptor (pig) (10 μM) Inhibition (%): 10 μM test compound, 450 μg protein from pig brain homogenate, 60 min, room temperature; for IC50: pig brain homogenate. Here is the method: I. Method for Determining the Inhibition of [^3H]-MPEP Binding in the mGluR5 Receptor Binding Assay
Pig brain homogenate is produced by homogenisation (Polytron Pt 3000, Kinematica AG, 10,000 revolutions per minute for 90 seconds) of pig brain hemispheres without medulla, cerebellum and pons in a buffer of pH 8.0 (30 mM Hepes, Sigma, order number H3375+1 tablet Complete Roche Diagnostics, order number 1836145 made up to 100 ml) in a ratio of 1:20 (brain weight/volume) and differential centrifugation at 900×g and 40,000×g. 450 μg of protein from brain homogenate is incubated in each case in 250 μl incubation batches in 96-well microtitre plates with 5 nM ^3[H]-MPEP (Tocris, order number R1212) (MPEP=[…]) and the compounds to be investigated ([…]) in the buffer (as above) at room temperature for 60 min.
The batches are then filtered with the assistance of a Brandel Cell Harvester (Brandel, Robotic 9600 model) on Unifilter plates with glass filter mats (Perkin Elmer, order number 6005177) and then washed 3 times with buffer (as above) using 250 μl per sample. The filter plates are then dried for 60 min at 55° C. Then 30 μl of Ultima Gold™ scintillating material (Packard BioScience, order number 6013159) is added per well and after 3 hours the samples are measured using the β counter (Microbeta, Perkin Elmer). Nonspecific binding is determined by the addition of 10 μM MPEP (Tocris, order number 1212).

T1 sequence (I3LUI7 19-1212): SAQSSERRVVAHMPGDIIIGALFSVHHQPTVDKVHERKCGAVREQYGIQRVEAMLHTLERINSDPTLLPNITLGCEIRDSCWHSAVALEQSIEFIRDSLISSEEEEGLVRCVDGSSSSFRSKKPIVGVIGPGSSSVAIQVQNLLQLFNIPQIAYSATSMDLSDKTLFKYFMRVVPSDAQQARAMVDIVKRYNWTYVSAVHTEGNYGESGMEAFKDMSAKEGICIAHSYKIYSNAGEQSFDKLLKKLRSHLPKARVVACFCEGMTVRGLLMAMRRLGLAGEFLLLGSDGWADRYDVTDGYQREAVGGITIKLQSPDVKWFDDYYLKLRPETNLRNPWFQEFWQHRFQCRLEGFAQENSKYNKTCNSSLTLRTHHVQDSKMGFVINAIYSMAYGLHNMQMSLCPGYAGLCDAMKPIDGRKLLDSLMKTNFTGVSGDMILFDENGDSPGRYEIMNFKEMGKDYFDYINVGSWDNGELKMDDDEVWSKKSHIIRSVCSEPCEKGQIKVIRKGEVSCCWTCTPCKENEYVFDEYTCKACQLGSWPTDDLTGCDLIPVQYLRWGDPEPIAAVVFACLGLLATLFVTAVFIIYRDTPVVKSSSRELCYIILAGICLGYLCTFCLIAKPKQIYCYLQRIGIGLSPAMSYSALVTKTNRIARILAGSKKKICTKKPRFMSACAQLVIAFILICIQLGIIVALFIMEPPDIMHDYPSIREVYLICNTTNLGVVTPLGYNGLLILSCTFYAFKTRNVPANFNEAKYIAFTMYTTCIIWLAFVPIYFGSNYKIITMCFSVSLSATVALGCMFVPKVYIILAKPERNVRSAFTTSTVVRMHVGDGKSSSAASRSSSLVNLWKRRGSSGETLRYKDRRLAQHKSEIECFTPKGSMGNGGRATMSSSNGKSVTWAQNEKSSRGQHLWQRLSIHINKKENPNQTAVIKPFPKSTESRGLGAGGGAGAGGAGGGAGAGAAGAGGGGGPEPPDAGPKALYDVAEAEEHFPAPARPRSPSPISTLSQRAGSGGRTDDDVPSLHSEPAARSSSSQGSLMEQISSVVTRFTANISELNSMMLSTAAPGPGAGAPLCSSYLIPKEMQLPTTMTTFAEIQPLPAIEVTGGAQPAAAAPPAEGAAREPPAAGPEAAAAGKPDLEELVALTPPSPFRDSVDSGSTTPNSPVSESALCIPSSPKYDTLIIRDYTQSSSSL

`CC1Cc2ccccc2N1C(=O)C#Cc1ccc(F)cc1F` (stereo not drawn) [Example 33, 1-(3-(2,4-difluorophenyl)-propiolyl)-2-methyl-indoline]: the “mGluR5 receptor (pig) (10 μM) Inhibition (%)” value turned out to be 27%.

`COc1cccc2c1CN(C(=O)C#Cc1cccc(Cl)c1)CC2` [Example 29, 2-(3-(3-chlorophenyl)-propiolyl)-8-methoxy-1,2,3,4-tetrahydro-isoquinoline] returned an IC50 of 8.4 nM.

Take `CC1Cc2ccccc2N1C(=O)C#Cc1ccc(F)cc1` (stereo not drawn) [Example 65, 1-(3-(4-fluorophenyl)-propiolyl)-2-methyl-indoline]: the “mGluR5 receptor (pig) (10 μM) Inhibition (%)” value is reported as 34%.

For `CC1Cc2ccccc2N1C(=O)C#Cc1cccs1` (stereo not drawn) [Example 56, 1-(3-(2-thienyl)-propiolyl)-2-methyl-indoline], the “mGluR5 receptor (pig) (10 μM) Inhibition (%)” value is given as 48%.

With `COc1cccc(C#CC(=O)N2CCc3ccccc3C2)c1` [Example 34, 2-(3-(3-methoxyphenyl)-propiolyl)-1,2,3,4-tetrahydro-isoquinoline], the “mGluR5 receptor (pig) (10 μM) Inhibition (%)” value is 12%.

Regarding `CC1Cc2ccccc2N1C(=O)C#Cc1ccccc1C(F)(F)F` (stereo not drawn) [Example 75, 1-(3-(2-trifluoromethylphenyl)-propiolyl)-2-methyl-indoline], the “mGluR5 receptor (pig) (10 μM) Inhibition (%)” value worked out at 45%.

Take `Cc1cccc(C#CC(=O)N2c3ccccc3CC2C)c1` (stereo not drawn) [Example 52, 1-(3-(3-tolyl)-propiolyl)-2-methyl-indoline]: the “mGluR5 receptor (pig) (10 μM) Inhibition (%)” value was 68%.

Compound `Cc1ccc2c(c1)CN(C(=O)C#Cc1cccc(Cl)c1)CC2` [Example 25, 2-(3-(3-chlorophenyl)-propiolyl)-7-methyl-1,2,3,4-tetrahydro-isoquinoline] showed an IC50 of 4.7 nM.

Regarding `Cc1ccc(C#CC(=O)N2c3ccccc3CC2C)cc1C` (stereo not drawn) [Example 72, 1-(3-(3,4-dimethylphenyl)-propiolyl)-2-methyl-indoline], the “mGluR5 receptor (pig) (10 μM) Inhibition (%)” value is recorded as 25%.

Consider `O=C(C#Cc1ccccn1)N1CCc2ccccc2C1` [Example 7, 2-(3-pyrid-2-yl-propiolyl)-1,2,3,4-tetrahydro-isoquinoline], for which the half-inhibitory concentration (IC50) came to 8570 nM.

For the compound `COc1cc2c(cc1O)CCN(C(=O)C#Cc1cccc(Cl)c1)C2` [Example 16, 2-(3-(3-chlorophenyl)-propiolyl)-6-hydroxy-7-methoxy-1,2,3,4-tetrahydro-isoquinoline], the IC50 stood at 720 nM.

As to `N#Cc1cccc(C#CC(=O)N2CCc3ccccc3C2)c1` [Example 77, 2-(3-(3-cyano-phenyl)-propiolyl)-1,2,3,4-tetrahydro-isoquinoline], the “mGluR5 receptor (pig) (10 μM) Inhibition (%)” value is 90%.

For `Cc1cccc2c1CCN(C(=O)C#Cc1cccc(Cl)c1)C2` [Example 26, 2-(3-(3-chlorophenyl)-propiolyl)-5-methyl-1,2,3,4-tetrahydro-isoquinoline], the IC50 was 4.7 nM.

`O=C(C#Cc1ccc(F)cc1)N1CCc2ccccc2C1` [Example 64, 2-(3-(4-fluorophenyl)-propiolyl)-1,2,3,4-tetrahydro-isoquinoline]: the “mGluR5 receptor (pig) (10 μM) Inhibition (%)” value is 88%.

In the case of `O=C(C#Cc1ccccc1)N1CCc2ccccc2C1` [Example 43, 2-(3-phenyl-propiolyl)-1,2,3,4-tetrahydro-isoquinoline], the “mGluR5 receptor (pig) (10 μM) Inhibition (%)” value came to 84%.

In turn, `O=C(C#Cc1cccc(Cl)c1)N1CCn2ccnc2C1` [Example 23, 7-(3-(3-chlorophenyl)-propiolyl)-5,6,7,8-tetrahydroimidazo[1,2-a]pyrazine] had an IC50 of 320 nM.

Turning to `COc1cc2c(cc1O)CN(C(=O)C#Cc1cccc(Cl)c1)CC2` [Example 15, 2-(3-(3-chlorophenyl)-propiolyl)-7-hydroxy-6-methoxy-1,2,3,4-tetrahydro-isoquinoline], the IC50 was 720 nM.

`Cc1ccc(C#CC(=O)N2CCc3ccccc3C2)cc1F` [Example 67, 2-(3-(3-fluoro-4-methylphenyl)-propiolyl)-1,2,3,4-tetrahydro-isoquinoline]: the “mGluR5 receptor (pig) (10 μM) Inhibition (%)” value amounted to 12%.

As to `COc1ccc2c(c1)CCN(C(=O)C#Cc1ccccc1)C2` [Example 14, 6-methoxy-2-(3-phenyl-propiolyl)-1,2,3,4-tetrahydro-isoquinoline], the IC50 worked out at 3100 nM.

Compound `O=C(C#Cc1ccccc1)N1CCc2ccccc21` [Example 3, 1-(3-phenyl-propiolyl)-2,3-dihydro-indole] registered an IC50 of 7940 nM.

For `COc1ccc(C#CC(=O)N2c3ccccc3CC2C)cc1` (stereo not drawn) [Example 54, 1-(3-(4-methoxyphenyl)-propiolyl)-2-methyl-indoline], the “mGluR5 receptor (pig) (10 μM) Inhibition (%)” value is 46%.

Compound `O=C(C#Cc1ccccc1)N1Cc2ccccc2C1` [Example 6, 2-(3-phenyl-propiolyl)-2,3-dihydro-isoindole] gave an IC50 of 1820 nM.

Consider `Cc1ccc(C#CC(=O)N2c3ccccc3CC2C)c(C)c1` (stereo not drawn) [Example 63, 1-(3-(2,4-dimethylphenyl)-propiolyl)-2-methyl-indoline], for which the “mGluR5 receptor (pig) (10 μM) Inhibition (%)” value is listed as 34%.

The compound `Cc1cccc2c1C(C)N(C(=O)C#Cc1cccc(Cl)c1)CC2` (stereo not drawn) [Example 31, 2-(3-(3-chlorophenyl)-propiolyl)-1,8-dimethyl-1,2,3,4-tetrahydro-isoquinoline] returned an IC50 of 2.6 nM.

Regarding `Cc1cccc(C#CC(=O)N2CCc3ccccc3C2)c1` [Example 51, 2-(3-(3-tolyl)-propiolyl)-1,2,3,4-tetrahydro-isoquinoline], the “mGluR5 receptor (pig) (10 μM) Inhibition (%)” value stood at 103%.

On to `CC1Cc2ccccc2N1C(=O)C#Cc1ccc(Cl)cc1Cl` (stereo not drawn) [Example 50, 1-(3-(2,4-dichlorophenyl)-propiolyl)-2-methyl-indoline], for which the “mGluR5 receptor (pig) (10 μM) Inhibition (%)” value was found to be 16%.

`O=C(C#Cc1ccccc1)N1CCc2ncccc2C1` [Example 4, 6-(3-phenyl-propiolyl)-5,6,7,8-tetrahydro-[1,6]naphthyridine] gave a concentration for half-maximal inhibition (IC50) of 2320 nM.

In turn, `Cc1noc2c1CN(C(=O)C#Cc1ccccc1)CC2` [Example 8, 3-methyl-5-(3-phenyl-propiolyl)-4,5,6,7-tetrahydro-isoxazolo[4,5-c]pyridine] gave a concentration for half-maximal inhibition (IC50) of 3550 nM.

Turning to `O=C(C#Cc1cccc(Cl)c1)N1CCc2ccc(O)cc2C1` [Example 28], the IC50 stood at 87 nM.

For the compound `Cc1ccc(C#CC(=O)N2CCCc3ccccc32)cc1` [Example 57, 1-(3-(4-tolyl)-propiolyl)-1,2,3,4-tetrahydro-quinoline], the “mGluR5 receptor (pig) (10 μM) Inhibition (%)” value came to 18%.

Compound `O=C(C#Cc1ccccc1)N1CCc2onc(-c3ccccc3)c2C1` [Example 9, 3-phenyl-5-(3-phenyl-propiolyl)-4,5,6,7-tetrahydro-isoxazolo[4,5-c]pyridine] had an IC50 of 2360 nM.

`O=C(C#Cc1ccccc1)N1CCCc2ccccc21` [Example 2, 1-(3-phenyl-propiolyl)-1,2,3,4-tetrahydro-quinoline] displayed a half-maximal inhibitory concentration (IC50) of 1750 nM.

As to `Cc1ccc(C#CC(=O)N2CCc3ccccc3C2)cc1` [Example 39, 2-(3-(4-tolyl)-propiolyl)-1,2,3,4-tetrahydro-isoquinoline], the “mGluR5 receptor (pig) (10 μM) Inhibition (%)” value amounted to 44%.

Turning to `CC1Cc2ccccc2N1C(=O)C#Cc1cccc(Cl)c1` (stereo not drawn) [Example 66, 1-(3-(3-chlorophenyl)-propiolyl)-2-methyl-indoline], the “mGluR5 receptor (pig) (10 μM) Inhibition (%)” value worked out at 70%.

`N#Cc1ccccc1C#CC(=O)N1CCc2ccccc2C1` [Example 76, 2-(3-(2-cyano-phenyl)-propiolyl)-1,2,3,4-tetrahydro-isoquinoline]: the “mGluR5 receptor (pig) (10 μM) Inhibition (%)” value amounted to 26%.

In turn, `COc1cc2c(cc1OC)CN(C(=O)C#Cc1cccc(Cl)c1)CC2` [Example 11, 2-(3-(3-chlorophenyl)-propiolyl)-6,7-dimethoxy-1,2,3,4-tetrahydro-isoquinoline] gave an IC50 of 2720 nM.

`O=C(C#Cc1ccc(C(F)(F)F)cc1)N1CCc2ccccc2C1` [Example 41, 2-(3-(4-trifluoromethylphenyl)-propiolyl)-1,2,3,4-tetrahydro-isoquinoline]: the “mGluR5 receptor (pig) (10 μM) Inhibition (%)” value is recorded as 16%.

For `Cc1ccc(C#CC(=O)N2c3ccccc3CC2C)cc1` (stereo not drawn) [Example 40, 1-(3-(4-tolyl)-propiolyl)-2-methyl-indoline], the “mGluR5 receptor (pig) (10 μM) Inhibition (%)” value is given as 34%.

For `Cc1cccc(C#CC(=O)N2c3ccccc3CC2C)c1C` (stereo not drawn) [Example 46, 1-(3-(2,3-dimethylphenyl)-propiolyl)-2-methyl-indoline], the “mGluR5 receptor (pig) (10 μM) Inhibition (%)” value is 18%.

For the compound `CC1Cc2ccccc2N1C(=O)C#Cc1ccccc1F` (stereo not drawn) [Example 38, 1-(3-(2-fluorophenyl)-propiolyl)-2-methyl-indoline], the “mGluR5 receptor (pig) (10 μM) Inhibition (%)” value is 49%.

Compound `Cc1cccc2c1CN(C(=O)C#Cc1cccc(Cl)c1)CC2` [Example 24, 2-(3-(3-chlorophenyl)-propiolyl)-8-methyl-1,2,3,4-tetrahydro-isoquinoline] returned a 50% inhibitory concentration (IC50) of 4.5 nM.

As for `Cc1cc(C#CC(=O)N2CCc3ccccc3C2)ccc1F` [Example 35, 2-(3-(4-fluoro-3-methylphenyl)-propiolyl)-1,2,3,4-tetrahydro-isoquinoline], the “mGluR5 receptor (pig) (10 μM) Inhibition (%)” value was 77%.
